Measurements from PMC12752606, “METTL10‐Mediated PIAS3 Methylation Links Purine Metabolism to Gastric Cancer Progression” (Advanced Science, 2025).

Assays:
[1] = tested on: purine nucleotides in MKN45 and AGS cells; test: Purine metabolite levels by LC-MS; type: cell-based; settings: 20 µM
Protocol: Cells were collected and transferred to centrifuge tubes, followed by three washes with cold PBS. The samples were then resuspended in an extraction solution (methanol: acetonitrile: water = 2:2:1, v/v/v, 1 mL) and vortexed for 30 s. The suspension underwent ice bath sonication for 10 min and frozen and thawed in liquid nitrogen for repeated three times. To fully precipitate proteins, the samples were incubated at −20 °C for 1 h. Subsequently, the cell lysates were centrifuged at 13000 rpm for 15 min at 4 °C. The supernatant was then lyophilized using a low‐temperature vacuum centrifugal concentrator and analyzed by LC‐MS using the AB SCIEX QTRAP 6500^+ system.

ATK orthotopic tumors = test: Orthotopic ATK cell gastric cancer allograft model with flow cytometry of tumor-infiltrating cells; type: in vivo, C57BL/6 mice
Protocol: Orthotopic gastric cancer models were established by surgically implanting 1 × 10⁶ METTL10‐overexpressing or vector control ATK cells into the gastric subserosal layer of C57BL/6 mice under aseptic conditions. Tumor tissues were harvested 20 days post‐implantation for subsequent analyses. In a separate cohort, mice bearing orthotopic tumors (1 × 10⁶ cells implanted) received subcutaneous administration of LZQ‐02‐023‐01 at a dose of 40 mg/kg/day, starting 7 days after tumor implantation. The treatment continued daily for 14 consecutive days. Tumor burden and therapeutic response were assessed at the end of the treatment period by excision and analysis of gastric tumors.
Tumor tissues were finely minced into approximately 1 mm^3 pieces and enzymatically digested in Hank's Balanced Salt Solution (HBSS) containing type IV collagenase (2357210, Gibco) at 37 °C for 1 h. The resulting cell suspensions were gently triturated and passed through an 80 µm cell strainer (22131209, Biosharp) to remove debris. Red blood cells were lysed using ACK lysis buffer (R1010, Solarbio) to yield a single‐cell suspension. Cells were subsequently stained with a cocktail of fluorochrome‐conjugated antibodies (1:200 dilution; details listed in Table S6, Supporting Information) and a fixable viability dye (1:200, 2365395, Invitrogen) for 30 min at 4 °C in the dark. After washing, the stained cells were analyzed using a Sony ID7000 spectral flow cytometer (Sony Biotechnology).
Paraffin sections were initially placed in an oven at 65 °C for 30 min to melt the paraffin. The slides were then immersed in two consecutive xylene baths for 10 min each to dewax the tissue, followed by hydration through a series of graded ethanol solutions. The sections were stained with hematoxylin for 10 min. After differentiation with 1% hydrochloric acid alcohol, the sections were blued with lithium carbonate and counterstained with eosin for 3 min. The slides were then dehydrated in graded ethanol and mounted with neutral resin. All pathological results were performed in a blinded manner by experienced gastrointestinal pathologists. For IHC staining, sections were processed in accordance with the manufacturer's protocol (MXB Biotechnologies). Briefly, antigen retrieval was conducted at 37 °C for 30 min, followed by blocking at room temperature for 10 min. The sections were subsequently incubated with the appropriate primary antibody overnight at 4 °C. The following day, biotin‐conjugated secondary antibodies were applied and incubated for 1 h, followed by streptavidin‐peroxidase incubation for 10 min. Diaminobenzidine (DAB) was employed as the chromogen for visualization, and hematoxylin was used for counterstaining. Imaging was performed using the Olympus VS200 microscope.

METTL10 = tested on: T1, METTL10; test: In vitro (cell-free) methylation of GST-PIAS3 by His-METTL10, immunoblotting; type: biochemical; settings: 20 µM or higher; GST-PIAS3 with His-METTL10
T1 construct: purchased ICE Bioscience Inc
Protocol: For the in vitro methylation assay, His‐METTL10 (1 µg) was incubated with recombinant human Histone H4 protein (20 ng; Abcam, ab198115) or GST‐PIAS3 (100 ng) of in methylation reaction buffer (50 mM Tris‐HCl (pH 8.0), 20 mM KCl, 5 mM DTT, 4 mM EDTA) containing 20 µM S‐(5′‐adenosyl)‐L‐methionine chloride dihydrochloride (SAM) at 37 °C for 1 h. The reaction was terminated by boiling the samples in SDS‐PAGE loading buffer, and the products were analyzed by immunoblotting.

[2] = tested on: Flag-METTL10 protein in HEK293T cells; test: Cycloheximide chase assay of Flag-METTL10 stability; type: cell-based; settings: 20 µM
[3] = 40 mg/kg/day for 14 days, flow cytometry

Cc1ccc(Nc2ncc3c(n2)N(C)C(=O)N(c2cccc(N)c2)C3)cn1 [LZQ-02-023-01, Three‐(3‐aminophenyl)‐1‐methyl‐7‐((6‐methylpyridin‐3‐yl)amino)‐3,4‐dihydropyrimido [4,5‐d] pyrimidin‐2 (1H)‐one]
Levels of purine nucleotides [1]: decreased
Tumor burden (ATK orthotopic tumors; 40 mg/kg/day for 14 consecutive days, ATK orthotopic model, vs vehicle): significant reduction in tumor burden
Proliferative activity (Ki-67 expression) of tumors (ATK orthotopic tumors; 40 mg/kg/day for 14 days): reduced proliferative activity
Tumor-infiltrating B cells (ATK orthotopic tumors; [3]): modest decrease
Tumor-infiltrating T lymphocytes (CD4+ and CD8+) (ATK orthotopic tumors; [3]): moderate increase
Methylation of PIAS3 in cell-free system (METTL10): decreased
Half-life of METTL10 protein [2]: remained unchanged
